Test results taken from patent publication US6664231B1, “Anti-fungal peptides” (priority 1993, dated 2003).
Read-outs that look alike come from different tables or passages of the source. Square brackets hold non-standard residues; d marks the D form. Ends that are not written are not given here. Peptide text beside a SMILES is read from it. Orn = NCCC[C@H](N)C(=O)O; Dab = NCC[C@H](N)C(=O)O

How the values were obtained:
[1] = system: mouse RAW 264.7 cells incubated with E. coli O113 LPS; conditions: RAW 264.7 cells with E. coli O113 LPS; concentration reversing LPS growth inhibition by 50%
Method: (§1) An in vitro LPS neutralization screening assay for evaluation of Domain III derived peptides was developed (as described in co-owned and co-pending U.S. patent application Ser. No. 08/306,473) which provides both a measure of efficacy of each peptide (EC50) and of the toxicity/growth inhibition of each peptide (IC50).
(§2) The cells were counted and their concentration adjusted to 2×10^5 cells/mL and 100 μL aliquots were added to each well of a 96-well microtitre plate. […] This incubation was performed in the absence or presence of peptides in varying concentrations between 25 ng/mL and 50 μg/mL. […] Cell proliferation was quantitatively measured by the addition of 1 μCi/well [^3H]-thymidine 5 hours after the time of initiation of the assay. After the 15-hour incubation, labeled cells were harvested onto glass fiber filters with a cell harvester (Inotech Biosystems, INB-384, Sample Processing and Filter Counting System, Lansing, Mich.).

mouse RAW 264.7 cells = system: mouse RAW 264.7 cells
Method: as §1, §2

[2] = RAW 264.7 cell growth inhibited by 50%

Compound	In Vitro LPS Neutralization EC50 [1]	IC50 (toxicity/growth inhibition of peptide) (mouse RAW 264.7 cells; [2])	IC50 (toxicity/growth inhibition of peptide) (mouse RAW 264.7 cells)
CC[C@@H](C)[C@@H](NC(=O)[C@@H](C)NC(=O)[C@@H](Cc1c[nH]c2ccccc12)NC(=O)[C@@H](CCCCN)NC(=O)[C@H](N)CCCCN)C(=O)N[C@H](CCC(N)=O)C(=O)N[C@H](CC(C)C)C(=O)N[C@H](CCCCN)C(=O)N[C@H](CCCCN)C(N)=O [XMP.375P] (H-[dK][dK][dW][dA][dI][dQ][dL][dK][dK]-NH2)	>50 µg/mL	NA (NA for IC50 means no evidence of decreased RAW cell growth at up to 50 μg/ml)	
CC[C@H](C)[C@H](NC(=O)[C@H](CC(C)C)NC(=O)[C@H](Cc1c[nH]c2ccccc12)NC(=O)[C@H](CCCN)NC(=O)[C@@H](N)CCCN)C(=O)N[C@@H](CCC(N)=O)C(=O)N[C@@H](CC(C)C)C(=O)N[C@@H](CCCN)C(=O)N[C@@H](CCCN)C(N)=O [XMP 338]	>25 µg/mL	NA (NA for IC50 means no evidence of decreased RAW cell growth at up to 50 μg/ml)	
H-SKWAIQLKK-NH2 [XMP.409P]	NA (NA for EC50 means no evidence neutralization of LPS at up to 50 μg/ml)	NA (NA for IC50 means no evidence of decreased RAW cell growth at up to 50 μg/ml)	
H-KVKWLIQLFHK-NH2 [XMP.288P]	0.87 ± 0.06 µg/mL		>25 µg/mL
CC[C@H](C)[C@@H]1NC(=O)[C@H](C)NC(=O)[C@H](Cc2c[nH]c3ccccc23)NC(=O)[C@H](CCCCN)NC(=O)[C@H](CCCCN)NC(=O)[C@H](CCCCN)NC(=O)[C@H](CC(C)C)NC(=O)[C@H](CCC(N)=O)NC1=O [XMP.408P] (cyclo(LKKKWAIQ))	NA (NA for EC50 means no evidence neutralization of LPS at up to 50 μg/ml)	NA (NA for IC50 means no evidence of decreased RAW cell growth at up to 50 μg/ml)	
KKKWAIQLKK-NH2 [XMP.377P]	NA (NA for EC50 means no evidence neutralization of LPS at up to 50 μg/ml)	NA (NA for IC50 means no evidence of decreased RAW cell growth at up to 50 μg/ml)	
CC[C@H](C)[C@H](NC(=O)[C@H](CC(C)C)NC(=O)[C@H](Cc1c[nH]c2ccccc12)NC(=O)[C@H](CCN)NC(=O)[C@@H](N)CCN)C(=O)N[C@@H](CCC(N)=O)C(=O)N[C@@H](CC(C)C)C(=O)N[C@@H](CCN)C(=O)N[C@@H](CCN)C(N)=O [XMP 339P] (H-[Dab][Dab]WLIQL[Dab][Dab]-NH2)	NA (NA for EC50 means no evidence neutralization of LPS at up to 50 μg/ml)	NA (NA for IC50 means no evidence of decreased RAW cell growth at up to 50 μg/ml)	
H-KVKWLIQLF-NH2 [XMP.295P]	3.69 ± 0.12 µg/mL		>25 µg/mL
CC[C@H](C)[C@H](NC(=O)[C@H](CC(C)C)NC(=O)[C@H](Cc1c[nH]c2ccccc12)NC(=O)[C@@H](N)CCCCN)C(=O)N[C@@H](CCCN)C(=O)N[C@@H](CC(C)C)C(=O)N[C@@H](Cc1ccccc1)C(=O)N[C@@H](Cc1c[nH]cn1)C(=O)N[C@@H](CCCCN)C(=O)N[C@@H](CCCCN)C(N)=O [XMP.369P] (H-KWLI[Orn]LFHKK-NH2)	12.09 ± 0.43 µg/mL	NA (NA for IC50 means no evidence of decreased RAW cell growth at up to 50 μg/ml)	
CC[C@H](C)[C@H](NC(=O)[C@H](CC(C)C)NC(=O)[C@@H](Cc1c[nH]c2ccccc12)NC(=O)[C@H](N)CCCCN)C(=O)N[C@@H](CCC(N)=O)C(=O)N[C@@H](CC(C)C)C(=O)N[C@@H](Cc1ccccc1)C(=O)N[C@@H](Cc1c[nH]cn1)C(=O)N[C@H](CCCCN)C(=O)N[C@H](CCCCN)C(N)=O [XMP.363P]	>50 µg/mL	NA (NA for IC50 means no evidence of decreased RAW cell growth at up to 50 μg/ml)	
CC[C@@H](C)[C@@H](NC(=O)[C@@H](CCC(N)=O)NC(=O)[C@@H](CC(C)C)NC(=O)[C@H](N)CCCCN)C(=O)N[C@H](CC(C)C)C(=O)N[C@H](Cc1c[nH]c2ccccc12)C(=O)N[C@H](CCCCN)C(=O)N[C@H](CCCCN)C(N)=O [XMP.374P]	13.97 ± 2.02 µg/mL	NA (NA for IC50 means no evidence of decreased RAW cell growth at up to 50 μg/ml)	
CC[C@H](C)[C@H](NC(=O)[C@H](CC(C)C)NC(=O)[C@H](Cc1c[nH]c2ccccc12)NC(=O)[C@@H](N)CCCCN)C(=O)N[C@@H](CCN)C(=O)N[C@@H](CC(C)C)C(=O)N[C@@H](Cc1ccccc1)C(=O)N[C@@H](Cc1c[nH]cn1)C(=O)N[C@@H](CCCCN)C(=O)N[C@@H](CCCCN)C(N)=O [XMP.371P] (H-KWLI[Dab]LFHKK-NH2)	NA (NA for EC50 means no evidence neutralization of LPS at up to 50 μg/ml)		>25 µg/mL
KKWLIQLFKK-NH2 [XMP.351P]	8.47 ± 0.71 µg/mL	NA (NA for IC50 means no evidence of decreased RAW cell growth at up to 50 μg/ml)	
H-KSKVPWLIQLFHKK-NH2 [XMP.393P]	>25 µg/mL	NA (NA for IC50 means no evidence of decreased RAW cell growth at up to 50 μg/ml)	
H-PWLIQLFHKK-NH2 [XMP.355P]	1.08 ± 0.05 µg/mL	NA (NA for IC50 means no evidence of decreased RAW cell growth at up to 50 μg/ml)	
KWAIQLFHKK-NH2 [XMP.386P]	9.75 ± 1.02 µg/mL	NA (NA for IC50 means no evidence of decreased RAW cell growth at up to 50 μg/ml)	
H-RRWLIQLRR-NH2 [XMP.336P]	NA (NA for EC50 means no evidence neutralization of LPS at up to 50 μg/ml)	NA (NA for IC50 means no evidence of decreased RAW cell growth at up to 50 μg/ml)	
CC[C@H](C)[C@H](NC(=O)[C@H](CC(C)C)NC(=O)[C@H](Cc1c[nH]c2ccccc12)NC(=O)[C@H](CCCCN)NC(C)=O)C(=O)N[C@@H](CCN)C(=O)N[C@@H](CC(C)C)C(=O)N[C@@H](Cc1ccccc1)C(=O)N[C@@H](Cc1c[nH]cn1)C(=O)N[C@@H](CCCCN)C(=O)N[C@@H](CCCCN)C(N)=O [XMP.372P] (Ac-KWLI[Dab]LFHKK-NH2)	>25 µg/mL		>25 µg/mL
CC[C@H](C)[C@H](NC(=O)[C@H](CC(C)C)NC(=O)[C@H](Cc1c[nH]c2ccccc12)NC(=O)[C@H](N)CS)C(=O)N[C@@H](CCC(N)=O)C(=O)N[C@@H](CC(C)C)C(=O)N[C@@H](Cc1ccccc1)C(=O)N[C@@H](Cc1c[nH]cn1)C(=O)N[C@@H](CCCCN)C(=O)N[C@@H](CCCCN)C(N)=O [XMP.359P] (H-[dC]WLIQLFHKK-NH2; N-terminus assumed)	7.31 ± 1.26 µg/mL		>25 µg/mL
KKLLLLQKK-NH2 [XMP.384P]	NA (NA for EC50 means no evidence neutralization of LPS at up to 50 μg/ml)	NA (NA for IC50 means no evidence of decreased RAW cell growth at up to 50 μg/ml)	
GWLIQLFHKK-NH2 [XMP.388P]	8.08 ± 1.52 µg/mL	NA (NA for IC50 means no evidence of decreased RAW cell growth at up to 50 μg/ml)	
H-KKLLQLLKK-NH2 [XMP.382P]	NA (NA for EC50 means no evidence neutralization of LPS at up to 50 μg/ml)	NA (NA for IC50 means no evidence of decreased RAW cell growth at up to 50 μg/ml)	
CCCCCCCC(=O)N[C@H](CCCCN)C(=O)N[C@H](Cc1c[nH]c2ccccc12)C(=O)N[C@H](CC(C)C)C(=O)N[C@@H](C(=O)N[C@H](CCC(N)=O)C(=O)N[C@H](CC(C)C)C(=O)N[C@H](Cc1ccccc1)C(=O)N[C@H](Cc1c[nH]cn1)C(=O)N[C@H](CCCCN)C(=O)N[C@H](CCCCN)C(N)=O)[C@H](C)CC [XMP.414]	1.91 ± 0.04 µg/mL	10.96 ± 0.52 µg/mL	
CC[C@H](C)[C@H](NC(=O)[C@H](CC(C)C)NC(=O)[C@@H](N)Cc1c[nH]c2ccccc12)C(=O)N[C@@H](CCC(N)=O)C(=O)N[C@@H](CC(C)C)C(=O)N[C@@H](Cc1ccccc1)C(=O)N[C@@H](Cc1c[nH]cn1)C(=O)N[C@@H](CCCCN)C(N)=O [XMP.303P]	11.79 ± 0.85 µg/mL	NA (NA for IC50 means no evidence of decreased RAW cell growth at up to 50 μg/ml)	
H-KKWLIQAKK-NH2 [XMP.345P]	>50 µg/mL	NA (NA for IC50 means no evidence of decreased RAW cell growth at up to 50 μg/ml)	
CC[C@H](C)[C@H](NC(=O)[C@H](CC(C)C)NC(=O)[C@@H](Cc1c[nH]c2ccccc12)NC(=O)[C@@H](CCCCN)NC(C)=O)C(=O)N[C@@H](CCC(N)=O)C(=O)N[C@@H](CC(C)C)C(=O)N[C@@H](Cc1ccccc1)C(=O)N[C@@H](Cc1c[nH]cn1)C(=O)N[C@H](CCCCN)C(=O)N[C@H](CCCCN)C(N)=O [XMP.364P]	>25 µg/mL	NA (NA for IC50 means no evidence of decreased RAW cell growth at up to 50 μg/ml)	
